Test results from ChEMBL document CHEMBL1201862, “PubChem BioAssay data set” (2004).
Activity calls are given as the source filed them. For most assays here, no stated cut-off is given here; in the data, actives have a measured IC50 and inactives only a lower limit.

Experiments:
[1] = target: T1, Carboxy-terminal domain RNA polymerase II polypeptide A small phosphatase 1 (Homo sapiens, UniProt Q9GZU7); test: inhibitors of CTDSP1, concentration-response testing, biochemical assay, absorbance-based, actives from ultra-high-throughput screening (AID 540297); type: functional
T1 sequence (Q9GZU7 whole entry): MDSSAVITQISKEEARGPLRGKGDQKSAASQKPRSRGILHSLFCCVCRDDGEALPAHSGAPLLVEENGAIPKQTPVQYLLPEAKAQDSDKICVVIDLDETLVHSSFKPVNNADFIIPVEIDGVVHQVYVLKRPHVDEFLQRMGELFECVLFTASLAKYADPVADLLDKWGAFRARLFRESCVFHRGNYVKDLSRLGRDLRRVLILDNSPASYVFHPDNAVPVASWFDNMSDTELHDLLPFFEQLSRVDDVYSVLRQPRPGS

SUMO-activating enzyme [2] = target: T2, SUMO-activating enzyme (Homo sapiens, UniProt Q9UBT2); test: inhibitors of in vitro SUMOylation cascade, primary screen, biochemical, HTRF, uHTS (AID 2006); type: protein-complex assay
SUMO E1/E2 = SUMO E1/E2 (Homo sapiens, UniProt P63279+Q9UBE0+Q9UBT2); test: SAR analysis of SUMOylation using HTRF in an in-Vitro dose response assay. [Related pubchem assays (depositor defined):AID2006, AID2011, AID2018, AID2069, AID2658]; type: functional
SUMO-activating enzyme [3] = target: T2, SUMO-activating enzyme; test: SUMOylation inhibitor hit validation, confirmation, SUMOylation inhibitor project, biochemical, AlphaScreen (AID 2018); type: functional
HEK293 [4] = test: cells; type: functional, cell-based; conditions: Homo sapiens
HEK293 [5] = test: cells; type: functional, cell-based; conditions: Homo sapiens; remark: listed apart in the source
HEK293 [6] = test: NOD1 signaling inhibitors, primary screen, cell-based, luminescence, uHTS (AID 1578); type: functional; conditions: Homo sapiens
HEK293 [7] = test: NOD2 signaling inhibitors in MDP-stimulated cells, cell-based, uHTS, luminescence (AID 2001); type: functional; conditions: Homo sapiens
[8] = target: Lysine-specific demethylase 4C (Homo sapiens, UniProt Q9H3R0); test: GASC-1 (JMJD2C) histone demethylase inhibitors, dose response, biochemical, DELFIA europium, cherry-picked samples (AID 488835); type: functional
[9] = target: T3, Tyrosine-protein phosphatase non-receptor type 7 (Homo sapiens, UniProt P35236); type: functional
T3 sequence (P35236 whole entry): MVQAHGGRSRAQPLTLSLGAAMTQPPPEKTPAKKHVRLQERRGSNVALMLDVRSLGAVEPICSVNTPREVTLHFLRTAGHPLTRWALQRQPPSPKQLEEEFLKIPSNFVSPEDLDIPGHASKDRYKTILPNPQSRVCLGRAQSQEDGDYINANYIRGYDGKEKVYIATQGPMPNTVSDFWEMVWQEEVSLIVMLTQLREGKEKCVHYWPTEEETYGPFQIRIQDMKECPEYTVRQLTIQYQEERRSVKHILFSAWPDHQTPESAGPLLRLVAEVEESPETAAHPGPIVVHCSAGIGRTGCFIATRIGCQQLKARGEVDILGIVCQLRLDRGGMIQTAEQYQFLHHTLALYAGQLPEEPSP

[10] = target: T4, Tyrosine-protein phosphatase non-receptor type 22 (Homo sapiens, UniProt Q9Y2R2); type: functional
T4 sequence (Q9Y2R2 whole entry): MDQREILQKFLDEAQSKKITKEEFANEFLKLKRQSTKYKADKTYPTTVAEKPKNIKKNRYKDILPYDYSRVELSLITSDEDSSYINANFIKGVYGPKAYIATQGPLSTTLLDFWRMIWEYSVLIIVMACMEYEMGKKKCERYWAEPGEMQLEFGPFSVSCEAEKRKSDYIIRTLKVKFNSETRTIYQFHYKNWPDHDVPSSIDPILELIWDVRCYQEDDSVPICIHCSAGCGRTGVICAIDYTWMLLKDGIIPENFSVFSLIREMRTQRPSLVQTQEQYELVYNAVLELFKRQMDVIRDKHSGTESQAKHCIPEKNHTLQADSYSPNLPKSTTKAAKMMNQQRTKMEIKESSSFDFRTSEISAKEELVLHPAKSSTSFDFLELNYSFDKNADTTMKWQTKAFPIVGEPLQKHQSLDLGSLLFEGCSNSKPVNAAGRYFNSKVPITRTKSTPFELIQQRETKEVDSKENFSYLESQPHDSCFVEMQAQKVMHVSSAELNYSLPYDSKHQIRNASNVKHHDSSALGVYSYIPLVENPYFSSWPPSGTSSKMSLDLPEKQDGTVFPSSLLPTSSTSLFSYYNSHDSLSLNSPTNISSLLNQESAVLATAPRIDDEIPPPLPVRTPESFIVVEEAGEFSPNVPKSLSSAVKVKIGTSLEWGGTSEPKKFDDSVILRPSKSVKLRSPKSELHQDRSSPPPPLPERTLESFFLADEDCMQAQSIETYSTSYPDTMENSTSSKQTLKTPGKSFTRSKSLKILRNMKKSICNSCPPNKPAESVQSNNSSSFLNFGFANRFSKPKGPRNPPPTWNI

[11] = target: T4, Tyrosine-protein phosphatase non-receptor type 22; type: functional; remark: listed apart in the source
[12] = Shn3 3'UTR reporter inhibitors, dose response, cell-based, Clone20 osteoblasts, firefly luciferase, cherry-picked (AID 624132); type: functional;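 further: firefly luciferase luminescence from reporter carrying the Shn3 3'UTR in osteoblasts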
[13] = target: T5, Nucleotide-binding oligomerization domain-containing protein 1 (Homo sapiens, UniProt Q9Y239); test: NOD1 signaling inhibitors, SAR follow-up, revised (AID 2333); type: functional
T5 sequence (Q9Y239 whole entry): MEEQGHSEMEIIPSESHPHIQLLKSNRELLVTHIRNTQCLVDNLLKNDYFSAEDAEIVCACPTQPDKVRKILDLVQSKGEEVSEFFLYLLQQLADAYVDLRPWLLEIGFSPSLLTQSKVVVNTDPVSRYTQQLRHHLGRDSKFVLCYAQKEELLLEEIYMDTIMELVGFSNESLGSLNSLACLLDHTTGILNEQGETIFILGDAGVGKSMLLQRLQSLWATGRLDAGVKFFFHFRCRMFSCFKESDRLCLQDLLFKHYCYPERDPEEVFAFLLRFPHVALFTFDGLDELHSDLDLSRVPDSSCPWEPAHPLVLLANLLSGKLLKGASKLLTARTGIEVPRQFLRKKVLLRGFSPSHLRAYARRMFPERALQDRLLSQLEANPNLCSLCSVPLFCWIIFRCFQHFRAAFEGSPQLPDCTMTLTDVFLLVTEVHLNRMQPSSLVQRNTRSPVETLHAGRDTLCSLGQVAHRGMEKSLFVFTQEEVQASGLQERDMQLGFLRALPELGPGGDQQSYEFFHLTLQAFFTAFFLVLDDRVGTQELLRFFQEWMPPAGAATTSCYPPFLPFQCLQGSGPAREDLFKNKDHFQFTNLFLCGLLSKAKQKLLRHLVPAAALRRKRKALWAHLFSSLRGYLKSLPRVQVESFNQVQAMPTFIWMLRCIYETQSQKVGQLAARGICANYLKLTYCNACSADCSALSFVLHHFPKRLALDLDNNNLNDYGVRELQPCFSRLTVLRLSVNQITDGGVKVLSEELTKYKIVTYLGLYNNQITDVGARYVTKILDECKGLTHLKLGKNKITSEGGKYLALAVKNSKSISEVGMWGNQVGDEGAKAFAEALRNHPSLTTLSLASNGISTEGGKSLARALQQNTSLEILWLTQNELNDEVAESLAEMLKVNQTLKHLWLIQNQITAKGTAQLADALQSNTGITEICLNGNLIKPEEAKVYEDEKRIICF

HEK293 [14] = test: cells; type: functional, cell-based; conditions: Homo sapiens; remark: listed apart in the source
[15] = control 3'UTR Renilla luciferase suppression, dose response, counter-screen for Shn3 inhibitor project, cell-based, Clone20-Shn3RL, cherry-picked (AID 624133); type: functional
[16] = target: Nucleotide-binding oligomerization domain-containing protein 2 (Homo sapiens, UniProt Q9HC29); test: NOD2 signaling inhibitors, cell-based, luminescence, uHTS, HEK293 (AID 1566); type: functional
[17] = HepG2 cell cytotoxicity, dose response, cytotoxicity control for Shn3 inhibitor project, CellTiter-Glo, cherry-picked (AID 624134); type: functional, cell-based
[18] = target: T6, Zinc finger protein mex-5 (Caenorhabditis elegans, UniProt Q9XUB2); test: MEX-5/TCR-2 RNA interaction inhibitors, dose response, biochemical, C. elegans, fluorescence polarization (AID 1960)
T6 sequence (Q9XUB2 whole entry): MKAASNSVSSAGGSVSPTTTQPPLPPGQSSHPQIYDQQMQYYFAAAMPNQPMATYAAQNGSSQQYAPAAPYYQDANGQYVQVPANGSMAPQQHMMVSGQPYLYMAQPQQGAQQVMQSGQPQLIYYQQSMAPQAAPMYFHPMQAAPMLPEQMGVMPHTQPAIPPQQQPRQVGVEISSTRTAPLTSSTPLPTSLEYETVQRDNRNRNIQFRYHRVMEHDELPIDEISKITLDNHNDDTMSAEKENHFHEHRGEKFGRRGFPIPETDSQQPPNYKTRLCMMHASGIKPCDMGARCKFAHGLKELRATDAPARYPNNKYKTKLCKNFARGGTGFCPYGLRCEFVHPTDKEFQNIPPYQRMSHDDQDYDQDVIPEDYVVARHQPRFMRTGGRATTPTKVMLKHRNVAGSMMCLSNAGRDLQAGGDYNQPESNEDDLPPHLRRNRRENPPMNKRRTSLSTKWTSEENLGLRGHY

[19] = target: T7, RNA-binding protein pos-1 (Caenorhabditis elegans, UniProt G5EF15); test: inhibitors of POS-1/mex-3 RNA binding, dose response, biochemical, fluorescence polarization (AID 1964);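 further: purified POS-1 fused to maltose binding protein made in E. coli; potency of compounds blocking POS-1 binding to fluorescent RNA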
T7 sequence (G5EF15 whole entry): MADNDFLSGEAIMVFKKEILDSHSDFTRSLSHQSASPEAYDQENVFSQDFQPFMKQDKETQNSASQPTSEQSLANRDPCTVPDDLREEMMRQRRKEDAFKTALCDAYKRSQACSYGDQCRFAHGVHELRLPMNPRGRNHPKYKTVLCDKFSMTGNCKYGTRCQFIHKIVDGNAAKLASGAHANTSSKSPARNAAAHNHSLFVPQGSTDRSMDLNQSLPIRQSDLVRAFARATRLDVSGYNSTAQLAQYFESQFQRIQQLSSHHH

[20] = target: Alkaline phosphatase, placental type (Homo sapiens, UniProt P05187); test: PLAP enzyme inhibitors, confirmation, biochemical, luminescence (AID 1512); type: functional
[21] = target: T8, Alkaline phosphatase, tissue-nonspecific isozyme (Homo sapiens, UniProt P05186); test: human TNAP enzyme inhibitors, SAR follow-up, biochemical, luminescent, dose response (AID 1056)
T8 sequence (P05186 whole entry): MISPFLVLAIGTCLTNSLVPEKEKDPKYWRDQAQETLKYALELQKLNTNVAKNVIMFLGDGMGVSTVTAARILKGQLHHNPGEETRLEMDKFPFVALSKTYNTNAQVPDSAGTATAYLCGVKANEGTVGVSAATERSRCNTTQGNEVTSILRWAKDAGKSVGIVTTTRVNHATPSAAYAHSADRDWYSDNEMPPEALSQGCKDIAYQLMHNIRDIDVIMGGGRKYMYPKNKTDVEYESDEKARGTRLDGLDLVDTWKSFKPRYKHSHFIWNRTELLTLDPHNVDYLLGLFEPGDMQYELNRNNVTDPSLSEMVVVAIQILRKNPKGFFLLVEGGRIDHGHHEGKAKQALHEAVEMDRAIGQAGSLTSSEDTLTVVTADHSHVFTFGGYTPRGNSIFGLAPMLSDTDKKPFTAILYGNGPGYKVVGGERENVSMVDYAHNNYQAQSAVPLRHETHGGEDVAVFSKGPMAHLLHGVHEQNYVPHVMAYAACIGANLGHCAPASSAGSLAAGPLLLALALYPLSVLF

T2 sequence (Q9UBE0 whole entry): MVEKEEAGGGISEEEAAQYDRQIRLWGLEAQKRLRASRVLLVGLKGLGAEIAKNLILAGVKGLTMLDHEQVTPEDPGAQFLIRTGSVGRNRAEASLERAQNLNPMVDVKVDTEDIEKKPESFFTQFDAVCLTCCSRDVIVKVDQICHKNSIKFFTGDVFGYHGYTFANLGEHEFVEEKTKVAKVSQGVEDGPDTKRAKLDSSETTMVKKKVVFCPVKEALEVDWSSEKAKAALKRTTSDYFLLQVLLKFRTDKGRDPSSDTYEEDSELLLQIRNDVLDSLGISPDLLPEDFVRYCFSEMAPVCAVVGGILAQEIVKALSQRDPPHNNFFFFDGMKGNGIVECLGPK
T2 sequence (Q9UBT2 whole entry): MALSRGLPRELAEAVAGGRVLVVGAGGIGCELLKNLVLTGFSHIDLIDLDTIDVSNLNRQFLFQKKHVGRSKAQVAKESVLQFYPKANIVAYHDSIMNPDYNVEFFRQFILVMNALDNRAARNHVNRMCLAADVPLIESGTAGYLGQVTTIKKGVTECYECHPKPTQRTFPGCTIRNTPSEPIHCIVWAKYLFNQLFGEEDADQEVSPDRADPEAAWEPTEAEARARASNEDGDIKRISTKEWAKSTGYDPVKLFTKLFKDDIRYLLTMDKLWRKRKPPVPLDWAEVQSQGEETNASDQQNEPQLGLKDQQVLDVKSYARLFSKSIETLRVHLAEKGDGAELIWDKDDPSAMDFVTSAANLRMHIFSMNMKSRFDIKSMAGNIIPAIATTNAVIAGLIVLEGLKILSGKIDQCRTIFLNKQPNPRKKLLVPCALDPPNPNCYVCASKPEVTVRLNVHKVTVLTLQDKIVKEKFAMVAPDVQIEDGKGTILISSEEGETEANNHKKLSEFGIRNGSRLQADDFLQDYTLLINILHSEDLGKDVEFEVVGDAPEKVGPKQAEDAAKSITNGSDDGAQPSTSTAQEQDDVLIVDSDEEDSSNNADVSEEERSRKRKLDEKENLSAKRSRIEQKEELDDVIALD
Sequence of Lysine-specific demethylase 4C (Q9H3R0 whole entry): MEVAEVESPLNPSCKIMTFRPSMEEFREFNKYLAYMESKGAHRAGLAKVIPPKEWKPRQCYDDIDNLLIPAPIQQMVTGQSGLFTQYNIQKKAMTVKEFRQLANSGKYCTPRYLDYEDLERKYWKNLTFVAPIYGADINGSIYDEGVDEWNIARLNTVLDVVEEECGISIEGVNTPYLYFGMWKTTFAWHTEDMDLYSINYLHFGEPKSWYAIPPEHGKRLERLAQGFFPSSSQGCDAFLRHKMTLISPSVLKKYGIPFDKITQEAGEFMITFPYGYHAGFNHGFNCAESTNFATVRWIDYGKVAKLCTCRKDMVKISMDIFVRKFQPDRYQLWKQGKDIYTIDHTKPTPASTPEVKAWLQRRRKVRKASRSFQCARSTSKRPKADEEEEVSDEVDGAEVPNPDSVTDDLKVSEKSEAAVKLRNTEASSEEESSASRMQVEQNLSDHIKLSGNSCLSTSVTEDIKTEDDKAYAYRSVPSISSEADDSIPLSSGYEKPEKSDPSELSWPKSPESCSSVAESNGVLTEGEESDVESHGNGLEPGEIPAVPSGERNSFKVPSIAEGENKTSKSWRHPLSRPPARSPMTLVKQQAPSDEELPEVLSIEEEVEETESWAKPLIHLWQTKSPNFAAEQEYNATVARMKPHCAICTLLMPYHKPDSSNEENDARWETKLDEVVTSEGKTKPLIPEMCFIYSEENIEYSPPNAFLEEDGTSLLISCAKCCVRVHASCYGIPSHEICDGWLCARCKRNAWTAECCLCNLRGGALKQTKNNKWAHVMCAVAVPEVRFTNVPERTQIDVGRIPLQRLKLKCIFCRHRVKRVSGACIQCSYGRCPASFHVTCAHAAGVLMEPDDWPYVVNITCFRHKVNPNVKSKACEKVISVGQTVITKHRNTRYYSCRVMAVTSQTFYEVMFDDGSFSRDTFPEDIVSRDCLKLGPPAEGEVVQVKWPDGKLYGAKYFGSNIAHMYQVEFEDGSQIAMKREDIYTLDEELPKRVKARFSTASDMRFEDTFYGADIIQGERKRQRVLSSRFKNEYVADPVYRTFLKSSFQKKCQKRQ
Sequence of Alkaline phosphatase, placental type (P05187 whole entry): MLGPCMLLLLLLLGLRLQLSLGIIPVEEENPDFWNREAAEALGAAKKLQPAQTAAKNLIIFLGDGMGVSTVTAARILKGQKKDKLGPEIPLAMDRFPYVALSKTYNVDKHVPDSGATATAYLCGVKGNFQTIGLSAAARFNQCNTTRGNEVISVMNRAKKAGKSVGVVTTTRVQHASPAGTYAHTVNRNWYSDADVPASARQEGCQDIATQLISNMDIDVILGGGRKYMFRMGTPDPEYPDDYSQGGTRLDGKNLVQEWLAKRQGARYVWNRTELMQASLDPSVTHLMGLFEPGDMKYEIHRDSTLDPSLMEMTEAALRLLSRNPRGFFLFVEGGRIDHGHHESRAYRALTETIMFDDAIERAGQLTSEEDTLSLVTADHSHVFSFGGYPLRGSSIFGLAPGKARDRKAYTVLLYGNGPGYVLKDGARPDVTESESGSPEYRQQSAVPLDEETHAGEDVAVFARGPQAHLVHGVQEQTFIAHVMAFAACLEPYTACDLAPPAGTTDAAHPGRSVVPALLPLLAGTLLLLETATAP
Sequence of Nucleotide-binding oligomerization domain-containing protein 2 (Q9HC29 whole entry, the tested form may be a part): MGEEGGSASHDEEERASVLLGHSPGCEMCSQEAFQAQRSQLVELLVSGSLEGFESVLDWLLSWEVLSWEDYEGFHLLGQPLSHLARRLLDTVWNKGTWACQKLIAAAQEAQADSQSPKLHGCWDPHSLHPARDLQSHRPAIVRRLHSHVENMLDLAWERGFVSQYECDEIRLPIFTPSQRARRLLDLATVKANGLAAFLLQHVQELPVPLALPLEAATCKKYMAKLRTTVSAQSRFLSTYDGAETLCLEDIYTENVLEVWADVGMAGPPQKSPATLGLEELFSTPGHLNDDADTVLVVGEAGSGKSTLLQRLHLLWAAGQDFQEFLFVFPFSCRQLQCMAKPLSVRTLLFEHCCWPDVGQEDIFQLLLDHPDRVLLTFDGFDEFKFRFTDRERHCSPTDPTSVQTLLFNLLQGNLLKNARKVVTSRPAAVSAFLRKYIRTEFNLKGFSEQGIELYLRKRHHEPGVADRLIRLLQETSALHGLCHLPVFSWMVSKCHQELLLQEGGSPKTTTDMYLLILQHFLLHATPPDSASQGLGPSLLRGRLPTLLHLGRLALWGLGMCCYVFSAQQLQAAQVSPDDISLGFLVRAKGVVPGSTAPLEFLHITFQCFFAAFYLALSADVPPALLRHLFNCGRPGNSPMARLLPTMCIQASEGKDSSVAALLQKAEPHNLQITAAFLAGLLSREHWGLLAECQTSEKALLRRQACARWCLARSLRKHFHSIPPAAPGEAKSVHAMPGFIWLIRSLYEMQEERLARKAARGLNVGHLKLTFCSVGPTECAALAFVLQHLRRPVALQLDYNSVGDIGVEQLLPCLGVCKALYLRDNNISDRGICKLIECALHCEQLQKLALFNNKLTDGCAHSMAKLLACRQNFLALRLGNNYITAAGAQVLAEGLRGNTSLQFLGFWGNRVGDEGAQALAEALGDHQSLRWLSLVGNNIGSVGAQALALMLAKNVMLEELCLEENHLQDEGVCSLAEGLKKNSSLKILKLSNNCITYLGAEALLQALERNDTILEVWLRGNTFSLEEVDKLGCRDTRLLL
Sequence of SUMO E1/E2 (Q9UBE0 whole entry): as the sequence (Q9UBE0 whole entry) above
Sequence of SUMO E1/E2 (Q9UBT2 whole entry): as the sequence (Q9UBT2 whole entry) above
Sequence of SUMO E1/E2 (P63279 whole entry): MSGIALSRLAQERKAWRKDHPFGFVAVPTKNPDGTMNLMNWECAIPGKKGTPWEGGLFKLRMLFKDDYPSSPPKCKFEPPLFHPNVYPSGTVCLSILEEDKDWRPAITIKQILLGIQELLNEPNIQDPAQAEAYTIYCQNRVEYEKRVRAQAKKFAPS

For Cc1ccccc1NC(=O)Cn1c(O)c(N=NC(=O)c2ccccc2O)c2ccccc21, the IC50 [1] was 1.23 µM (active), the IC50 (SUMO-activating enzyme [2]) was 9.83 µM (active) and the IC50 (SUMO E1/E2) was 49.7 µM (active). For the same compound, the IC50 (SUMO-activating enzyme [3]) was 8.06 µM (active).

For CN(C)S(=O)(=O)N1CCC(Oc2cccc(C(=O)NC3CCCCC3)c2)CC1, the IC50 (HEK293 [4]) was 18.8 µM (active), the IC50 (HEK293 [5]) was 11.3 µM (active) and the EC50 (HEK293 [6]) was 6.77 µM (active). For the same compound, the IC50 (HEK293 [7]) was 17.5 µM (inactive).

In the case of O=c1cc(N2CCc3ccccc32)[nH]c(=O)n1-c1ccccc1, the AC50 [8] is reported as 20.7 µM (active).

In the case of COc1ccc(Cl)cc1-c1nc(N)nc(NC2CCCCC2)n1, the IC50 [9] is reported as > 79.4 µM (inactive), the IC50 [10] is reported as > 79.4 µM (inactive) and the IC50 [11] is reported as > 79.4 µM (inactive).

With COc1cc(CC2C(=O)N(C)C(=O)N(C)C2=O)ccc1OCc1ccccc1 the AC50 [8] was 7.97 µM (active).

For CC1=C(C(=O)NC2CCCc3c2cnn3-c2cccc(C)c2C)OCCO1 (stereo not given), the AC50 [12] was 3.49 µM (active), the IC50 [13] was 4.06 µM (active) and the IC50 (HEK293 [14]) was > 20 µM (inactive). The AC50 [15] was 3.14 µM (active), the EC50 [16] was > 20 µM (inactive) and the EC50 (HEK293 [6]) was 5.36 µM (active). The IC50 (HEK293 [7]) was 11.6 µM (inactive) and the AC50 [17] was 34.1 µM (active).

With COCCn1c(=N)c(S(=O)(=O)c2ccc(Br)cc2)cc2c(=O)n3ccccc3nc21 the IC50 [9] was > 79.4 µM (inactive), the EC50 [18] was 4.16 µM (active) and the IC50 [10] was > 79.4 µM (inactive). For the same compound, the EC50 [19] was > 300 µM (inconclusive) and the IC50 [11] was > 79.4 µM (inactive).

With COc1ccc(-c2cc(C(=O)NCCc3ccc(O)c(O)c3)c3ccccc3n2)cc1 the IC50 [20] was > 100 µM (inactive) and the IC50 [21] was > 100 µM (inactive).

With CCOc1ccc(-n2c(SCC(=O)c3ccc(O)c(O)c3)nnc2-c2ccc(OC)cc2)cc1 the IC50 [20] was > 100 µM (inactive) and the IC50 [21] was > 100 µM (inactive).
